Experimental data taken from patent US20100292316A1, “IMPROVED THERAPEUTIC METHODS AND COMPOSITIONS COMPRISING CHROMAN RING COMPOUNDS” (Research Development Foundation, priority 2007, published 2010).

How the values were obtained:
Arg = Arg mRNA (RT-PCR) and protein (Western blot) levels; type: cell-based, human; conditions: 40 μM α-TEA
Protocol: Arg (ABL2) expression data obtained from gene array analysis was further confirmed by RT-PCR and Western blot analyses. […] Unlike MDA-MB-435 cells, the MCF-7 cell line is an estrogen-receptor positive/estrogen responsive human breast cancer line (Klotz et al., 1995). However, both cell lines were induced to undergo apoptosis by α-TEA as assessed by PARP cleavage (FIG. 1B).
(§1) Whole-cell protein extracts were prepared as described previously (Yu et al., 1999), and 50 μg of protein was loaded per lane, separated using SDS-PAGE on a 10-15% gel under reducing conditions, and electroblotted onto a nitrocellulose membrane ([…] Optitran BA-S-supported nitrocellulose; Schleicher and Schuell, Keene, N.H.). Equal loading was verified using GAPDH antibody. Primary rabbit antibodies with specificity for PARP and primary goat antibody with specificity for Arg were purchased from Santa Cruz Biotechnology (Santa Cruz, Calif.). Horseradish peroxidase conjugated goat anti-rabbit or horseradish goat anti-mouse secondary antibody was purchased from Jackson Immunoresearch Laboratory (West Grove, Pa.). Horseradish peroxidase-conjugated donkey anti-goat serum was purchased from Santa Cruz Biotechnology. Immune complexes were visualized using enhanced chemiluminescence detection (Pierce Chemical Co., Rockford, Ill.). Fold differences in level of chemiluminescence were determined by densitometric analyses.
Total RNA was isolated from cells using RNeasy Protect Mini kit (Qiagen, Valencia, Calif.) according to manufacturer's instruction. Reverse transcription was performed as described above except using 15 μg of total RNA as template. […]
The double stranded small interfering RNA oligonucleotides specific for Arg and negative control siRNA (with no known homology to mammalian genes) were purchased from Ambion (siRNA ID #1478, Austin, Tex.). […] The cells were collected, lysed and the lysates were analyzed by immunoblotting (Western blot).

TSP-1 = TSP-1 mRNA (RT-PCR) and protein (Western blot) levels in human breast cancer cells; type: cell-based; conditions: 40 μM α-TEA; for peak TSP-1 mRNA levels, fold of VEH control: 6 h
Protocol: as §1
Total RNA was isolated from cells using RNeasy Protect Mini kit (Qiagen, Valencia, Calif.) according to manufacturer's instruction. Reverse transcription was performed as described above except using 15 μg of total RNA as template. Polymerase chain reaction (PCR) with Arg primers 30 cycles in volumes of 50 μl according to the manufacturer's protocol (Taq PCR Master Mix Kit; Qiagen, Valencia, Calif.). Primers used in the analyses were: Arg, forward (5′-CAGTGATGCCTCCACCTCAA-3′; SEQ ID NO:2) and reverse (5′-TTTCCCTCTCCCCTCAGAAAT-3′; SEQ ID NO:3) and for β-actin (loading control), forward (5′-GGCGGCACCACCATGTACCCT-3′; SEQ ID NO:4) and reverse (5′-AGGGGCCGGACTCGTCATACT-3′; SEQ ID NO:5) (Invitrogen, Carlsbad, Calif.). The amplification reaction involved denaturation at 95° C. for 30 seconds, annealing at 52° C. for 30 seconds, and extension at 72° C. for 30 seconds (for Arg) using a PTC-225 thermal cycler (MJ Research, San Francisco, Calif.). The PCR products were resolved on 1% agarose gels and visualized by ethidium bromide staining.
Western blot analyses with a primary mouse antibody (Calbiochem (San Diego, Calif.)) was used to determine protein levels in treated versus untreated MDA-MB-435 and MCF-7 human breast cancer cells (FIG. 2B). […] 66c1-4-GFP cells are a mouse mammary tumor cell line originally derived from a spontaneous mammary tumor in a Balb/cfC3H mouse and later isolated as a 6-thioguanine-resistant clone. The cells were subsequently stably transfected with the enhanced GFP (Lawson et al., 2003). […] In MCF-7 cells, peak TSP-1 mRNA levels at 6 h were 1.3-fold of the VEH control and peak TSP-1 protein levels at 24 h were 2.4-fold of the VEH control. […]

Akt = assay: Western blot of phosphorylated Akt (Ser 473) and total Akt in prostate cancer cells; type: cell-based, human
Source text: Previous studies have shown that α-TEA is an effective inducer of apoptosis in human prostate cancer cells (Anderson et al., 2004). Dose- and time-dependent pro-apoptotic effects of α-TEA in prostate cancer cells are mediated by Fas/FADD/caspase-8/tBid and Fas/Daxx/Ask1/JNK1/2/Bax, leading to activation of caspases-9 and -3. Thus, the Akt inhibiting activity of α-TEA was investigated in prostate cancer cells. Since phosphorylation of Akt at Ser 473 is required for its full activation (Cheng et al., 2005), we examined the phosphorylation status of Akt using an antibody that specifically recognizes Akt phosphorylated at Ser 473 in all three Akt isoforms (Upstate Cell Signaling Solutions (Charlottesville, Va.)). α-TEA decreased the levels of the phosphorylated forms of Akt. […] As verification that the decreases in phosphorylation status of Akt correlated with decreased kinase activity, the phosphorylation status of GSK3β, a downstream Akt target, was evaluated following α-TEA treatments. […] GAPDH levels were assayed with each immunoblot assay as a protein loading control.
Since Akt has three isoforms; namely, Akt1, Akt2, and Akt3, it was of interest to determine if α-TEA treatment was reducing the phosphorylated status of all three isoforms. Following α-TEA treatment the three Akt isoforms were immunoprecipitated with isoform specific antibodies, followed by western immunoblotting analyses using antibody specific for phospho-Akt. The protein levels of the isoforms were also determined. […] Treatment diminished the phosphorylation levels in all three Akt isoforms in both LNCaP and PC-3-GFP cells.
1×10^7 LNCaP or PC-3 3-GFP cells were treated with α-TEA and lysed in RIPA lysis buffer in the presence of protease inhibitors. […] Beads were washed 4 times with PBS and the proteins were released from the beads by boiling in Laemmli buffer for 5 min. Immunoprecipitated proteins were identified by SDS-PAGE followed by western immunoblot analyses.
Since Akt is activated, at least in part, by PI3K, we were interested to see if blockage of PI3K activity using the PI3K inhibitor LY294002 (Calbiochem-Novabiochem Corp. (San Diego, Calif.)) (Vlahos et al., 1994) would augment the apoptotic response induced by α-TEA.

Cc1c(C)c2c(c(C)c1OCC(=O)O)CC[C@@](C)(CCC[C@H](C)CCC[C@H](C)CCCC(C)C)O2 [α-TEA]
up-regulation of Arg mRNA and protein levels (Arg; MCF-7 cells): not in MCF-7 cells
peak Arg mRNA levels, fold of the vehicle (VEH) control (Arg; MDA-MB-435 cells, 24 h, RT-PCR densitometry): 1.5 fold
peak Arg protein levels, fold of the VEH control (Arg; MDA-MB-435 cells, 24 h, Western densitometry): 2.9 fold
peak TSP-1 mRNA levels, fold of VEH control (TSP-1; MCF-7 cells): 1.3 fold
peak TSP-1 protein levels, fold of VEH control (TSP-1; MCF-7 cells, 24 h): 2.4 fold
peak TSP-1 mRNA levels, fold of VEH control (TSP-1; MDA-MB-435 cells): 1.8 fold
peak TSP-1 protein levels, fold of VEH control (TSP-1; MDA-MB-435 cells, 15 h): 4.7 fold
phosphorylation levels of Akt1, Akt2, Akt3 isoforms (immunoprecipitation) (Akt; LNCaP and PC-3-GFP cells, 40 μM α-TEA, 24 h): markedly reduced
effect on level of Akt protein expression (Akt; LNCaP and PC-3-GFP cells, any time point): no major effect
inhibition of levels of endogenously phosphorylated Akt (Akt; LNCaP cells, 10 μM α-TEA and/or 10 μM LY294002): 40%
reduction of phosphorylated forms of Akt (Akt; LNCaP cells, 40 μM α-TEA, 24 h): 90%
inhibition of levels of endogenously phosphorylated Akt (Akt; PC-3-GFP cells, 20 μM α-TEA and/or 10 μM LY294002): 70%
reduction of phosphorylated forms of Akt (Akt; PC-3-GFP cells, 40 μM α-TEA, 24 h): 70%
